# Measured values from PMC12423892 (ACS Omega, 2025).
# Experiments:
# [1] = tested on: HCT-116; test: In vitro antiproliferative MTT assay, HCT-116; assay type: cell-based; conditions: Homo sapiens, HCT-116, read-out: IC50 HCT-116
# [2] = tested on: MCF-7; test: In vitro antiproliferative MTT assay, MCF-7; assay type: cell-based; conditions: Homo sapiens, MCF7, read-out: IC50 MCF-7
# [3] = tested on: HepG-2; test: In vitro antiproliferative MTT assay, HepG-2; assay type: cell-based; conditions: Homo sapiens, HepG2, read-out: IC50 HepG-2
# [4] = tested on: HepG2 cells; test: Apoptosis analysis, Annexin V/PI, HepG2; assay type: cell-based, human; conditions: at IC50, 72 h, single measurement
# [5] = tested on: HepG2 cells; test: Cell cycle analysis, flow cytometry, HepG2; assay type: cell-based, human; conditions: treated at IC50 (3a 4.82, 6 3.33, 15 3.31 μM), 72 h, single measurement
# [6] = tested on: WI-38; test: Cytotoxicity against normal WI-38 cells; assay type: cell-based; conditions: Homo sapiens, WI-38, read-out: IC50 WI-38
Compound,IC50 [1],IC50 [2],IC50 [3],apoptosis early [4],apoptosis late [4],apoptosis total [4],necrosis [4],%G0-G1 [5],%G2/M [5],%Pre-G1 [5],%S [5],IC50 [6]
"C/C(=N\N)c1ccc(S(=O)(=O)N2CCC(C)CC2)cc1 [Compound 12, (E)-1-((4-(1-hydrazineylideneethyl)phenyl)sulfonyl)-4-methylpiperidine]",87.3 ± 6.2 µM,96.1 ± 5.23 µM,59.6 ± 3.3 µM,–,–,–,–,–,–,–,–,–
CNC(=O)c1cc(Oc2ccc(NC(=O)Nc3ccc(Cl)c(C(F)(F)F)c3)cc2)ccn1 [sorafenib],9.3 ± 0.2 µM,6.72 ± 0.16 µM,7.4 ± 0.25 µM,–,–,–,–,–,–,–,–,35.71 ± 0.013 µM

# More lines, main results first:
IC50 [1],IC50 [2],Compound,IC50 [3],apoptosis early [4],apoptosis late [4],apoptosis total [4],necrosis [4],%G0-G1 [5],%G2/M [5],%Pre-G1 [5],%S [5],IC50 [6]
15.1 ± 0.75 µM,18.4 ± 0.85 µM,"CCN(CC)C(=S)N/N=C(\C)c1ccc(S(=O)(=O)N2CCC(C)CC2)cc1 [Compound 5, (E)-N,N-Diethyl-2-(1-(4-((4-methylpiperidin-1-yl)sulfonyl)phenyl)ethylidene)hydrazine-1-carbothioamide]",10.7 ± 0.63 µM,–,–,–,–,–,–,–,–,–
6.74 ± 0.4 µM,8.19 ± 0.62 µM,COc1cccc2c1C(=O)c1c(O)c3c(c(O)c1C2=O)C[C@@](O)(C(=O)CO)C[C@@H]3O[C@H]1C[C@H](N)[C@H](O)[C@H](C)O1 [doxorubicin],7.52 ± 0.31 µM,7.43%,21.13%,31.28%,2.72%,48.26%,21.46%,31.28%,30.28%,–
3.21 ± 0.21 µM,5.83 ± 0.61 µM,CC[C@]1(O)C[C@@H]2CN(CCc3c([nH]c4ccccc34)[C@@](C(=O)OC)(c3cc4c(cc3OC)N(C)[C@H]3[C@@](O)(C(=O)OC)[C@H](OC(C)=O)[C@]5(CC)C=CCN6CC[C@]43[C@@H]65)C2)C1 [vinblastine],7.35 ± 0.52 µM,–,–,–,–,–,–,–,–,–
